Results from ChEMBL document CHEMBL1143529, “A general carbometalation, three component coupling strategy for the synthesis of alpha,beta-unsaturated gamma-sultines including thio-rofecoxib, a selective COX-2 inhibitor” (Bioorg Med Chem Lett, 2005).

Columns and labels:
[1] = target: T1, Prostaglandin G/H synthase 2 (Homo sapiens, UniProt P35354); test: In vitro inhibitory concentration against prostaglandin G/H synthase 2 in microsomal enzyme assay
T1 sequence (P35354 whole entry): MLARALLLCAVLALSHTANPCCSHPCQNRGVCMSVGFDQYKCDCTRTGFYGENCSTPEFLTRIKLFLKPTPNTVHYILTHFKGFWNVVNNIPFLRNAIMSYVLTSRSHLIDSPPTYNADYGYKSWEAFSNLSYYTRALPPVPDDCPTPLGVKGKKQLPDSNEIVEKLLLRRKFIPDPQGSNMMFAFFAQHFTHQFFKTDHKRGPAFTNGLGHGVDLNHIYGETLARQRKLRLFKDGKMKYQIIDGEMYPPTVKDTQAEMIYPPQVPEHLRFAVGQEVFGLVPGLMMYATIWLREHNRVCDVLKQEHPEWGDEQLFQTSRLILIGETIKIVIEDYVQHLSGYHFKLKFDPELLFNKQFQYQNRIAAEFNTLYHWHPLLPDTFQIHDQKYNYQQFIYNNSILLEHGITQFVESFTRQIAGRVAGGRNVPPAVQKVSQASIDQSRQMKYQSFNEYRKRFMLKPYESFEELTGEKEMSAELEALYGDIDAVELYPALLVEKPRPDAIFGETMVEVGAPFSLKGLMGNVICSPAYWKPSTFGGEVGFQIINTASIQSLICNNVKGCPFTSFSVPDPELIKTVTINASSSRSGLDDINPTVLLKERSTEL

[2] = target: T2, Prostaglandin G/H synthase 2 (Homo sapiens) (UniProt P35354); test: In vitro percent inhibition of prostaglandin G/H synthase 2 at 100 uM in microsomal enzyme assay
T2 sequence (whole entry): T1 sequence (P35354 whole entry)

IC50 [1]: > 100 µM
inhibition [2]: 13%
Structure (SMILES): CS(=O)(=O)c1ccc(C2=C(c3ccccc3)S(=O)OC2)cc1 (configuration not stated)
